Data as given in patent publication US6586633B1, “Amine derivatives” (Pola Chemical Industries, Inc., priority 2001, dated 2003).
Like-named read-outs stand apart in the source and are kept apart here.

Legend:
Assay in all cases: Measurement of antifungal activity (minimum inhibitory concentration), agar dilution
Format in all cases: cell-based
[1] = tested on: T. rubrum IF09185; details: Sabouraud's agar, one week at 27° C.; for MIC: Trichophyton rubrum, 168 h, read-out: MIC value (minimum compound concentration that definitely inhibited any visible growth)
Protocol: (§1) Measurement of Antifungal Activity (Measurement of Minimum Inhibitory Concentration)
(§2) Antifungal activity of representative compounds of the present invention against dermatophytes was investigated.
(§3) Briefly, strains of dermatophytes to be tested were grown on slant media prepared with Sabouraud's agar (product of Nissuiseiyaku; pepton 1.0%, glucose 4.0%, agar 1.5%, pH 5.9) at 27° C. for two weeks, so as to allow sufficient production of conidiospores. Subsequently, sterilized saline solution containing 0.05% (wt/vol) TWEEN 80 was added thereto, and while the surface of the each medium was scraped with a platinum loop, the conidiospores were deaggregated and suspended in the saline solution. The suspension was filtered through a double face sterilized gauze sheet so as to remove agar and hypha pellets. The filtrate was diluted with a saline solution so as to make the concentration of the conidiospores decrease to 10^6/ml by use of a cytometer, and the resultant dilute filtrate served as a test dermatophytes solution. Meanwhile, a stock solution was prepared by adding 1 ml of dimethylsulfoxide to 10 mg of a compound to be tested. An aliquot (500 μl) of the stock solution was combined with dimethylsulfoxide (500 μl), to thereby prepare a 2-fold dilute solution. Dilution was similarly repeated until 13 different dilute solutions ranging from 10 to 0.0025 mg/ml (concentrations of the ultimate test system: 100-0.025 μg/ml) were obtained. 100 μl each of the diluted solutions of the test compound was dispensed into the sterilized petri dish. A Sabouraud's agar (pepton 1.0%, glucose 4.0%, agar 1.5%, pH 5.9; 10 ml), which had been sterilized and dissolved, was added thereto, and the mixture was thoroughly mixed and solidified. Next, the above-prepared test dermatophytes solution was planted in amounts of 5 μl by use of a microplanter.

[2] = tested on: T. mentagrophytes IF05811; details: Sabouraud's agar, one week at 27° C.; for MIC: Trichophyton mentagrophytes, 168 h, read-out: MIC value (minimum compound concentration that definitely inhibited any visible growth)
Protocol: as §1, §2, §3

[3] = tested on: M. canis TIMM0760; details: Sabouraud's agar, one week at 27° C.; for MIC: Microsporum canis, 168 h, read-out: MIC value (minimum compound concentration that definitely inhibited any visible growth)
Protocol: as §1, §2, §3

[4] = tested on: T. rubrum IF05808; details: Sabouraud's agar, one week at 27° C.; for MIC: Trichophyton rubrum, 168 h, read-out: MIC value (minimum compound concentration that definitely inhibited any visible growth)
Protocol: as §1, §2, §3

[5] = tested on: T. mentagrophytes IF07552; details: Sabouraud's agar, one week at 27° C.; for MIC: Trichophyton mentagrophytes, 168 h, read-out: MIC value (minimum compound concentration that definitely inhibited any visible growth)
Protocol: as §1, §2, §3

[6] = tested on: M. gypseum IF08231; details: Sabouraud's agar, one week at 27° C.; for MIC: Nannizzia gypsea, 168 h, read-out: MIC value (minimum compound concentration that definitely inhibited any visible growth)
Protocol: as §1, §2, §3

[7] = tested on: T. mentagrophytes TIMM1189; details: Sabouraud's agar, one week at 27° C.; for MIC: Trichophyton mentagrophytes, 168 h, read-out: MIC value (minimum compound concentration that definitely inhibited any visible growth)
Protocol: as §1, §2, §3

[8] = tested on: T. mentagrophytes TIMM1177; details: Sabouraud's agar, one week at 27° C.; for MIC: Trichophyton mentagrophytes, 168 h, read-out: MIC value (minimum compound concentration that definitely inhibited any visible growth)
Protocol: as §1, §2, §3

[9] = tested on: T. violaceum TIMM1264; details: Sabouraud's agar, one week at 27° C.; for MIC: Trichophyton violaceum, 168 h, read-out: MIC value (minimum compound concentration that definitely inhibited any visible growth)
Protocol: as §1, §2, §3

SMILES	MIC [1]	MIC [2]	MIC [3]	MIC [4]	MIC [5]	MIC ([6]; M. gypseum IF08231 (Table 2))	MIC [7]	MIC [8]	MIC [9]	MIC ([6]; H. gypseum IF08231 (Table 1))	MIC value (minimum compound concentration that definitely inhibited any visible growth) [1]	MIC value (minimum compound concentration that definitely inhibited any visible growth) [2]	MIC value (minimum compound concentration that definitely inhibited any visible growth) [3]	MIC value (minimum compound concentration that definitely inhibited any visible growth) [4]	MIC value (minimum compound concentration that definitely inhibited any visible growth) [5]	MIC value (minimum compound concentration that definitely inhibited any visible growth) ([6]; H. gypseum IF08231 (Table 1))	MIC value (minimum compound concentration that definitely inhibited any visible growth) [7]	MIC value (minimum compound concentration that definitely inhibited any visible growth) [8]	MIC value (minimum compound concentration that definitely inhibited any visible growth) [9]	MIC value (minimum compound concentration that definitely inhibited any visible growth) ([6]; M. gypseum IF08231 (Table 2))
C=C(C)c1ccccc1CN(C)Cc1ccc(C(C)(C)C)cc1.Cl [Compound 108, N-(4-tert-Butylbenzyl)-N-methyl-(2-isopropenylbenzyl)amine Hydrochloride]	0.78 µg/mL	1.56 µg/mL	1.56 µg/mL	0.78 µg/mL	1.56 µg/mL	1.56 µg/mL	1.56 µg/mL	3.12 µg/mL	3.12 µg/mL											
C=C(C)c1cccc(CN(C)C/C=C/C#CC(C)(C)C)c1.Cl [Compound 3, trans-N-(6,6-Dimethyl-2-hepten-4-ynyl)-N-methyl-(3-isopropenylbenzyl)amine Hydrochloride]	0.1 µg/mL	0.1 µg/mL	0.1 µg/mL	0.1 µg/mL	0.2 µg/mL		0.2 µg/mL	0.1 µg/mL	0.1 µg/mL	0.39 µg/mL										
C/C=C(/C)c1cccc(CN(C)C/C=C/C#CC(C)(C)C)c1.Cl [Compound 27, trans-, cis-N-(6,6-Dimethyl-2-hepten-4-ynyl)-N-methyl-[3-(1-methyl-1-propenyl)benzyl]amine Hydrochloride]											1.56 µg/mL	1.56 µg/mL	0.78 µg/mL	1.56 µg/mL	1.56 µg/mL	6.25 µg/mL	1.56 µg/mL	1.56 µg/mL	1.56 µg/mL	
C=C(C)c1cccc(CN(CC)Cc2ccc(C(C)(C)C)cc2)c1.Cl [Compound 114, N-(4-tert-Butylbenzyl)-N-ethyl-(3-isopropenylbenzyl)amine Hydrochloride]	0.2 µg/mL	0.78 µg/mL	0.2 µg/mL	0.2 µg/mL	0.39 µg/mL	0.2 µg/mL	0.39 µg/mL	0.39 µg/mL	0.39 µg/mL											
CC(C)=Cc1cccc(CN(C)C/C=C/C#CC(C)(C)C)c1.Cl [Compound 12, trans-N-(6,6-Dimethyl-2-hepten-4-ynyl)-N-methyl-[3-(2-methyl-1-propenyl)benzyl]amine Hydrochloride]	0.2 µg/mL	0.39 µg/mL	0.2 µg/mL	0.39 µg/mL	0.39 µg/mL		0.39 µg/mL	0.78 µg/mL	0.39 µg/mL	0.78 µg/mL										
C=C(CC)c1cccc(CN(C)C/C=C/C#CC(C)(C)C)c1.Cl [Compound 25, trans-N-(6,6-Dimethyl-2-hepten-4-ynyl)-N-methyl-[3-(1-ethylvinyl)benzyl]amine Hydrochloride]	0.78 µg/mL	0.78 µg/mL	0.39 µg/mL	0.78 µg/mL	0.78 µg/mL		0.78 µg/mL	0.78 µg/mL	0.78 µg/mL	3.12 µg/mL										
C=C(C)c1cc(CN(C)Cc2ccc(C(C)(C)C)cc2)ccc1C.Cl [Compound 126, N-(4-tert-Butylbenzyl)-N-methyl-(3-isopropenyl-4-methylbenzyl)amine Hydrochloride]	3.12 µg/mL	12.5 µg/mL	1.56 µg/mL	3.12 µg/mL	3.12 µg/mL	6.25 µg/mL	3.12 µg/mL	12.5 µg/mL	3.12 µg/mL											
C=C(C)c1cccc(CN(C)Cc2ccc(C(C)(C)C)cc2)c1.Cl [Compound 77, N-(4-tert-Butylbenzyl)-N-methyl-(3-isopropenylbenzyl)amine Hydrochloride]	0.1 µg/mL	0.39 µg/mL	0.2 µg/mL	0.1 µg/mL	0.1 µg/mL	0.39 µg/mL	0.2 µg/mL	0.2 µg/mL	0.2 µg/mL											
C/C=C(/C)c1cccc(CN(C)Cc2ccc(C(C)(C)C)cc2)c1.Cl [Compound 97, cis-N-(4-tert-Butylbenzyl)-N-methyl-[3-(1-methyl-1-propenyl)benzyl]amine Hydrochloride]											0.78 µg/mL	1.56 µg/mL	0.39 µg/mL	1.56 µg/mL	3.12 µg/mL		0.78 µg/mL	1.56 µg/mL	1.56 µg/mL	3.12 µg/mL
C=C(C)c1cc(C)cc(CN(C)Cc2ccc(C(C)(C)C)cc2)c1.Cl [Compound 88, N-(4-tert-Butylbenzyl)-N-methyl-(3-isopropenyl-5-methylbenzyl)amine hydrochloride]	0.05 µg/mL	0.1 µg/mL	0.05 µg/mL	0.05 µg/mL	0.05 µg/mL	0.1 µg/mL	0.05 µg/mL	0.1 µg/mL	0.1 µg/mL											
C=C(C)c1cccc(CN(CC)C/C=C/C#CC(C)(C)C)c1.Cl [Compound 45, trans-N-(6,6-Dimethyl-2-hepten-4-ynyl)-N-ethyl-(3-isopropenylbenzyl)amine Hydrochloride]	0.39 µg/mL	0.39 µg/mL	0.2 µg/mL	0.39 µg/mL	0.39 µg/mL		0.39 µg/mL	0.39 µg/mL	0.39 µg/mL	0.39 µg/mL										
C=C(C)c1cc(F)cc(CN(C)Cc2ccc(C(C)(C)C)cc2)c1.Cl [Compound 101, N-(4-tert-Butylbenzyl)-N-methyl-(3-fluoro-5-isopropenylbenzyl)amine Hydrochloride]	0.1 µg/mL	0.1 µg/mL	0.1 µg/mL	0.05 µg/mL	0.1 µg/mL	0.2 µg/mL	0.1 µg/mL	0.2 µg/mL	0.1 µg/mL											
C=C(C)c1cc(CN(C)C/C=C/C#CC(C)(C)C)ccc1C.Cl [Compound 74, trans-N-(6,6-Dimethyl-2-hepten-4-ynyl)-N-methyl-(3-isopropenyl-4-methylbenzyl)amine Hydrochloride]	3.12 µg/mL	6.25 µg/mL	1.56 µg/mL	1.56 µg/mL	12.5 µg/mL		6.25 µg/mL	12.5 µg/mL	6.25 µg/mL	12.5 µg/mL										
C=C(C)c1cccc(CN(C)C/C=C/C#CC(C)(C)C)c1C.Cl [Compound 52, trans-N-(6,6-Dimethyl-2-hepten-4-ynyl)-N-methyl-(3-isopropenyl-2-methylbenzyl)amine Hydrochloride]	12.5 µg/mL	12.5 µg/mL		12.5 µg/mL	12.5 µg/mL		12.5 µg/mL	12.5 µg/mL	12.5 µg/mL	3.12 µg/mL										
C=Cc1cccc(CN(C)Cc2ccc(C(C)(C)C)cc2)c1.Cl [Compound 81, N-(4-tert-Butylbenzyl)-N-methyl-(3-vinylbenzyl)amine Hydrochloride]	0.39 µg/mL	0.39 µg/mL	0.2 µg/mL	0.2 µg/mL	0.39 µg/mL	0.39 µg/mL	0.78 µg/mL	0.39 µg/mL	0.78 µg/mL											
C=C(C)c1cc(F)cc(CN(C)C/C=C/C#CC(C)(C)C)c1.Cl [Compound 64, trans-N-(6,6-Dimethyl-2-hepten-4-ynyl)-N-methyl-(3-fluoro-5-isopropenylbenzyl)amine Hydrochloride]	0.1 µg/mL	0.1 µg/mL	0.2 µg/mL	0.1 µg/mL	0.1 µg/mL		0.1 µg/mL	0.1 µg/mL	0.2 µg/mL	0.39 µg/mL										
